Tests used:
LAPC-4 cells = assay: Cellular proliferation assay (alamarBlue) LAPC-4; format: cell-based; conditions: Homo sapiens, LAPC4, 168 hours, read-out: Prostate LAPC-4 IC50
Description: (§1) In accordance with the invention, the ability of the substances to inhibit the proliferation of various cell lines was determined. Cell viability was determined by means of the alamarBlue® reagent (Invitrogen). […] After incubation overnight at 37° C., the fluorescence values were determined (CI values). […] Then the fluorescence values were determined (CO values).
(§2) The substances were investigated in the cell lines in Table 1, which for example represent the stated indications: […]

MCF-7 cells = assay: Cellular proliferation assay (alamarBlue) MCF-7; format: cell-based; conditions: Homo sapiens, MCF7, 96 hours, read-out: Breast MCF-7 IC50
Description: as §1, §2

HeLa-MaTu cells = assay: Cellular proliferation assay (alamarBlue) HeLa-MaTu; format: cell-based; conditions: 96 hours, read-out: Cervix HeLa-MaTu IC50
Description: as §1, §2

plasma proteins = assay: Plasma protein binding by equilibrium dialysis; format: in vitro ADME, mouse; conditions: for fu: free fraction of the species investigated (mouse), as used in Table 6; for fraction unbound: mouse, plasma, free (unbound) fraction, equilibrium dialysis, read-out: Protein binding, given as % fu
Description: The binding of test substances to plasma proteins is determined by equilibrium dialysis by means of the Ht-dialysis apparatus (96-well) made of Teflon and a semipermeable membrane (regenerated cellulose, MWCO 12-14K). This separates 150 μl of each of a plasma side and a buffer side (50 mM phosphate buffer). The test substance is added in 2 concentrations (usually 3 and 0.3 μM) to the plasma side and binds to plasma proteins. The unbound fraction of the test substance passes through the membrane and is distributed on either side until equilibrium is established (after approx. 6-8 h at 37° C.). The substance concentration on the buffer side and the plasma side is determined by LC-MS analysis. For this, both sides are brought by dilution with buffer or plasma to the same matrix (10% plasma) and then precipitated with methanol. The free (unbound) fraction (fu) is calculated from the quotient of the buffer and plasma concentration. Stability tests and recovery tests are run concurrently as controls. In addition, the substance in buffer is dialysed against buffer, to check the nonspecific binding to apparatus and membrane and establishment of equilibrium. Because during incubation the osmotic pressure of the plasma proteins leads to dilution of the plasma (volume shift), this possible error is determined by weighing blank plasma samples and is included in the calculation of fu. Establishment of equilibrium and plasma stability should have a value not lower than 80% and the recovery should be at least 30%. A free fraction of <1% is regarded as high, between 1 and 10% as moderate and >10% as low plasma protein binding.

[1] = In-vivo tolerability in the mouse; parameters: species or system female NMRI nude mice; conditions: for MTD / MTD at 5 days: female, NMRI nude, mouse, in vivo, oral; for MTD: once daily, read-out: maximum tolerated treatment dose (MTD), single daily treatment; for MTD at 5 days: twice daily, after 5 days of treatment, read-out: maximum tolerated treatment dose (MTD), twice daily administration; for Drug-induced deaths (day): 3 animals per group; for tolerability at all doses tested: treatment once or twice daily
Description: The substances were formulated in NMP/PEG300 (1/9 V/V). They were administered orally, in an amount of 10 ml/kg, once or twice daily for a period of 5 to 7 days to female NMRI nude mice (6-8 weeks old; 3 animals per group). Body weight and mortality of the mice were monitored daily up to the end of the study. Toxicity was defined as follows: ≧10% substance-induced deaths or ≧20% weight loss.

MOLM-13 cells = assay: MOLM-13 acute monocytic leukaemia tumour model; conditions: for T/C value: day 3 to day 14, measured on day 14; for activity on tumour growth: significance P<0.05
Description: NMRI nude mice were inoculated subcutaneously in the right flank on day 0 with 2×10^6 MOLM-13 cells in 0.1 ml Matrigel. […] Practical example 1 and practical example 2 were dissolved in 40% PEG400, 5% ethanol, 25% Solutol. The substances were administered orally, daily for […] (day 3 to day 14). […] Practical examples 1 and 2 were applied at a daily dose of 200 (highest dose used), 120 or 70 mg/kg.

[2] = B16F10 melanoma tumour model; conditions: C57BL/6, mouse, in vivo, po
Description: (§3) C57BL/6 mice were inoculated on day 0 with 0.5×10^6 cells in 0.1 ml medium, subcutaneously, in the right flank. […] The substances were administered orally for 10 days (day 2 to day 11). […] Practical example 2 was applied at a dose of 160 or 120 mg/kg.

B16F10 melanoma = B16F10 melanoma tumour model
Description: as §3

[3] = oral 50 mg/kg, QD × 5, once daily
[4] = oral 50 mg/kg, QD × 5, twice daily
[5] = oral 100 mg/kg, QD × 5, once daily
[6] = oral 100 mg/kg, QD × 5, twice daily
[7] = oral 200 mg/kg, QD × 5, once daily

Structure (SMILES) | IC50 (LAPC-4 cells) [nM] | IC50 (MCF-7 cells) [nM] | IC50 (HeLa-MaTu cells) [nM] | fu (plasma proteins) [%] | fraction unbound (plasma proteins) | MTD [1] [mg/kg] | MTD at 5 days [1] [mg/kg] | % maximum body weight change (day) [1, 3] | Remarks (tolerability) [1, 3] | Drug-induced deaths (day) [1, 3] | % maximum body weight change (day) [1, 4] | Remarks (tolerability) [1, 4] | Drug-induced deaths (day) [1, 4] | % maximum body weight change (day) [1, 5] | Remarks (tolerability) [1, 5] | Drug-induced deaths (day) [1, 5] | % maximum body weight change (day) [1, 6] | Remarks (tolerability) [1, 6] | Drug-induced deaths (day) [1, 6] | % maximum body weight change (day) [1, 7] | further results
Cc1sc2c(c1C)C(c1ccc(Cl)cc1)=N[C@@H](CC(=O)N1CC3(COC3)C1)c1nnc(C)n1-2 [Example 2, 2-[(S)-4-(4-Chlorophenyl)-2,3,9-trimethyl-6H-thieno[3,2-f][1,2,4]triazolo[4,3-a][1,4]diazepin-6-yl]-1-(2-oxa-6-azaspiro[3.3]hept-6-yl)ethan-1-one] | 43 | 116 | 202 | 25 | 0.25 | ≥ 200 | ≥ 100 | +5 (6) % | tolerated | 0/3 | +2 (6) % | tolerated | 0/3 | −1 (3) % | tolerated | 0/3 | −3 (5) % | HDT tolerated | 0/3 | +4 (4) % | Remarks (tolerability) [1, 7]: HDT tolerated; Drug-induced deaths (day) [1, 7]: 0/3; tolerability at all doses tested [1]: well tolerated; T/C value (MOLM-13 cells; 70 mg/kg oral daily): 46%; activity on tumour growth (MOLM-13 cells; 70 mg/kg oral daily): not statistically significant; T/C value (MOLM-13 cells; 120 mg/kg oral daily): 46%; activity on tumour growth (MOLM-13 cells; 120 mg/kg oral daily): not statistically significant; T/C value (MOLM-13 cells; 200 mg/kg oral daily): 23%; activity on tumour growth (MOLM-13 cells; 200 mg/kg oral daily): active; deaths in the treated group (MOLM-13 cells; MOLM-13 tumour model, dose group not stated): one unexplained death; MTD at 10 days [2]: 120 mg/kg; T/C value (B16F10 melanoma; 120 mg/kg (MTD), oral, day 2 to day 11): 27%; weight loss (B16F10 melanoma; 120 mg/kg dose, oral, day 2 to day 11): 2%; weight loss (B16F10 melanoma; 160 mg/kg dose, oral, day 2 to day 11): 5%; mice killed because of weight loss above 20% (B16F10 melanoma; group treated with 70 mg/kg, day 10): one mouse
Cc1sc2c(c1C)C(c1ccc(Cl)cc1)=N[C@@H](CC(=O)N1C3CCC1CC(=O)C3)c1nnc(C)n1-2 [Example 1, 8-{2-[(S)-4-(4-Chlorophenyl)-2,3,9-trimethyl-6H-thieno[3,2-f][1,2,4]triazolo[4,3-a][1,4]diazepin-6-yl]acetyl}-8-azabicyclo[3.2.1]octan-3-one] | 54 | 146 | 251 | 12 | 0.12 | ≥ 200 | ≥ 100 | +7 (6) % | tolerated | 0/3 | +5 (4) % | tolerated | 0/3 | +6 (6) % | tolerated | 0/3 | −1 (6) % | HDT tolerated | 0/3 | +5 (6) % | Remarks (tolerability) [1, 7]: HDT tolerated; Drug-induced deaths (day) [1, 7]: 0/3; tolerability at all doses tested [1]: well tolerated; T/C value (MOLM-13 cells; 70 mg/kg oral daily): 58%; activity on tumour growth (MOLM-13 cells; 70 mg/kg oral daily): inactive; T/C value (MOLM-13 cells; 120 mg/kg oral daily): 46%; activity on tumour growth (MOLM-13 cells; 120 mg/kg oral daily): showed activity; T/C value (MOLM-13 cells; 200 mg/kg oral daily): 39%; activity on tumour growth (MOLM-13 cells; 200 mg/kg oral daily): inhibited tumour growth

Reference: patent publication US20140213575A1, “6H-Thieno[3,2-f][1,2,4]triazolo[4,3-a][1,4]diazepines” (BAYER INTELLECTUAL PROPERTY GMBH, priority 2011, published 2014)
